# According to ChEMBL document CHEMBL1201862, “PubChem BioAssay data set” (2004):
# Calls of active or inactive are those of the source.
# Legend:
# HEK293 [1] = test: NOD2 signaling inhibitors in MDP-stimulated cells, cell-based, uHTS, luminescence (AID 2001); format: functional; conditions: Homo sapiens
# [2] = biological target: Nucleotide-binding oligomerization domain-containing protein 2 (Homo sapiens, UniProt Q9HC29); test: NOD2 signaling inhibitors, cell-based, luminescence, uHTS, HEK293 (AID 1566); format: functional
# [3] = cytotoxicity in HEK-293T cells, dose response, cytotoxicity control for TCR NF-kB inhibitor project, luminescence, T-cell screen hits (AID 489026); format: functional, cell-based;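 further: cells exposed to compound about 14 hours before the viability readout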
# HEK293 [4] = test: NOD1 signaling inhibitors, primary screen, cell-based, luminescence, uHTS (AID 1578); format: functional; conditions: Homo sapiens
# HEK293 [5] = test: cells; format: functional, cell-based; conditions: Homo sapiens
# HEK293 [6] = test: cells; format: functional, cell-based; conditions: Homo sapiens; remark: listed apart in the source
# HEK293 [7] = test: cells; format: functional, cell-based; conditions: Homo sapiens; remark: listed apart in the source
# [8] = microbe, parasite or virus in culture; format: functional; conditions: Mycobacterium tuberculosis
# [9] = HeLa 4N DNA content increase, dose response, cell-based, IC50 (AID 1117351); format: functional
# [10] = HeLa 2N DNA content increase, dose response, cell-based, IC50 (AID 1117349); format: functional
# [11] = cytotoxicity in HEK-293T cells, dose response, cytotoxicity control for BCR NF-kB inhibitor project, luminescence, B-cell screen hits (AID 489021); format: functional, cell-based;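 further: HEK-293T cells carrying an NF-kB luciferase reporter; cells exposed to compound for about 14 hours before viability readout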
# cells [12] = format: functional, cell-based
# cells [13] = format: functional, cell-based; remark: listed apart in the source
# Cytochrome P450 2C19 = Cytochrome P450 2C19 (Homo sapiens, UniProt P33261); test: Cytochrome panel assay with activity outcomes. Panel member name: p450-cyp2c19 Compounds with AC50 equal or less than 10 uM are considered active; format: functional
# cells [14] = format: functional, cell-based; remark: listed apart in the source
# cells [15] = format: functional, cell-based; remark: listed apart in the source
# [16] = biological target: T1, Trace amine-associated receptor 1 (Homo sapiens, UniProt Q96RJ0); test: Counterscreen for agonists of the human trace amine associated receptor 1 (hTAAR1): Fluorescence-based cell-based high throughput dose response assay to identify hTAAR1 agonist that also desensitize TAAR1 receptor response.; format: functional
# T1 sequence (Q96RJ0 whole entry): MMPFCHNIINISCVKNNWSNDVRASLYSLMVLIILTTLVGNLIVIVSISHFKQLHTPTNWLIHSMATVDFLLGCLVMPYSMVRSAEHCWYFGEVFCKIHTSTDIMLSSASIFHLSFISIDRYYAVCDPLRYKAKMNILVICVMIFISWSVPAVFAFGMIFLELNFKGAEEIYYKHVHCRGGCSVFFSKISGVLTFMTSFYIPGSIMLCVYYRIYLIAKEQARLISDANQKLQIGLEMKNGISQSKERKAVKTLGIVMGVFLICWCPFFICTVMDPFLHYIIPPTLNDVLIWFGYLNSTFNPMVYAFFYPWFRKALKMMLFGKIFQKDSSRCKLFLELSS
# [17] = biological target: T1, Trace amine-associated receptor 1; test: Fluorescence-based cell-based high throughput dose response assay to identify agonists of the human trace amine associated receptor 1 (TAAR1).; format: functional
# [18] = biological target: Voltage-dependent T-type calcium channel subunit alpha-1H (Homo sapiens, UniProt O95180); format: functional;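 further: channel activity triggered by adding a high calcium stimulation buffer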
# [19] = HEp-2 cell cytotoxicity, dose response, cytotoxicity control for RSV inhibitor project, HTS (AID 2410); format: functional; conditions: human respiratory syncytial virus
# [20] = biological target: Peroxisome proliferator-activated receptor gamma/Nuclear receptor coactivator 2 (Homo sapiens, UniProt P37231); test: (§1) TR-FRET dose response biochemical High Throughput Screening assay for agonists of the steroid receptor coactivator 2 (SRC-2) recruitment by the peroxisome proliferator-activated receptor gamma (PPAR gamma): non-selective agonists. [Related pubchem assays: 1297, 1032 ]; format: functional
# [21] = biological target: Peroxisome proliferator-activated receptor gamma/Nuclear receptor coactivator 1 (Homo sapiens, UniProt P37231); test: as §1, with “1 (SRC-1)” for “2 (SRC-2)”, “assays (depositor defined):AID1300, AID1808, AID504735, AID631]” for “assays: 1297, 1032 ]”; format: protein assay
# [22] = biological target: Peroxisome proliferator-activated receptor gamma/Nuclear receptor coactivator 3 (Homo sapiens, UniProt P37231); test: as §1, with “3 (SRC-3)” for “2 (SRC-2)”, “1301 (Confirmation screen.), 1048 (Primary screen.)]” for “1297, 1032 ]”; format: functional
# Estrogen receptor beta = Estrogen receptor beta (Homo sapiens, UniProt Q92731);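 further: recombinant ER-beta bound to coactivator SRC1 peptide in presence of estradiol agonist; inhibitors block coactivator peptide binding and lower the FRET signal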
# [23] = biological target: Protein-tyrosine kinase 2-beta (Homo sapiens, UniProt Q14289);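 further: potency of inhibitors of PYK2 kinase phosphorylation of poly-GT substrate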
# Coagulation factor XII = biological target: T2, Coagulation factor XII (Homo sapiens, UniProt P00748); format: functional;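 further: activated factor XIIa alpha cleaving a fluorogenic AMC peptide substrate; inhibitor potency from loss of enzyme activity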
# T2 sequence (P00748 whole entry): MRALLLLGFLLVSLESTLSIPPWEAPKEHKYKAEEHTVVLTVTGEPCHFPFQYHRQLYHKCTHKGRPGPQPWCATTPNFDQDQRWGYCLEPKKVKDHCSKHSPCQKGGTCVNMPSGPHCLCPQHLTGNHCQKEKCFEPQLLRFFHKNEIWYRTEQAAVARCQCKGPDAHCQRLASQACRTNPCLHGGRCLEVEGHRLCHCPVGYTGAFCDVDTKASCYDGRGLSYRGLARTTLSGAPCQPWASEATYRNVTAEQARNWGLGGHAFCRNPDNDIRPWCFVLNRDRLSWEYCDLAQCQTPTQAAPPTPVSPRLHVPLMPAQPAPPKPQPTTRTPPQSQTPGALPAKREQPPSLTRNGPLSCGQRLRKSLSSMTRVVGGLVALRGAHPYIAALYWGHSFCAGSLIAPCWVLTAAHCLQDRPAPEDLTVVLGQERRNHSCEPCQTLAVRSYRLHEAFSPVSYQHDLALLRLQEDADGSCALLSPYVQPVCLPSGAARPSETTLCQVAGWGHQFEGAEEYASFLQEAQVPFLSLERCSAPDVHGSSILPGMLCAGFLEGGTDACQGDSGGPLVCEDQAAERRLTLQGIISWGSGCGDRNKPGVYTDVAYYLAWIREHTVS
# Chain of Nucleotide-binding oligomerization domain-containing protein 2 (Q9HC29 whole entry, the tested form may be a part): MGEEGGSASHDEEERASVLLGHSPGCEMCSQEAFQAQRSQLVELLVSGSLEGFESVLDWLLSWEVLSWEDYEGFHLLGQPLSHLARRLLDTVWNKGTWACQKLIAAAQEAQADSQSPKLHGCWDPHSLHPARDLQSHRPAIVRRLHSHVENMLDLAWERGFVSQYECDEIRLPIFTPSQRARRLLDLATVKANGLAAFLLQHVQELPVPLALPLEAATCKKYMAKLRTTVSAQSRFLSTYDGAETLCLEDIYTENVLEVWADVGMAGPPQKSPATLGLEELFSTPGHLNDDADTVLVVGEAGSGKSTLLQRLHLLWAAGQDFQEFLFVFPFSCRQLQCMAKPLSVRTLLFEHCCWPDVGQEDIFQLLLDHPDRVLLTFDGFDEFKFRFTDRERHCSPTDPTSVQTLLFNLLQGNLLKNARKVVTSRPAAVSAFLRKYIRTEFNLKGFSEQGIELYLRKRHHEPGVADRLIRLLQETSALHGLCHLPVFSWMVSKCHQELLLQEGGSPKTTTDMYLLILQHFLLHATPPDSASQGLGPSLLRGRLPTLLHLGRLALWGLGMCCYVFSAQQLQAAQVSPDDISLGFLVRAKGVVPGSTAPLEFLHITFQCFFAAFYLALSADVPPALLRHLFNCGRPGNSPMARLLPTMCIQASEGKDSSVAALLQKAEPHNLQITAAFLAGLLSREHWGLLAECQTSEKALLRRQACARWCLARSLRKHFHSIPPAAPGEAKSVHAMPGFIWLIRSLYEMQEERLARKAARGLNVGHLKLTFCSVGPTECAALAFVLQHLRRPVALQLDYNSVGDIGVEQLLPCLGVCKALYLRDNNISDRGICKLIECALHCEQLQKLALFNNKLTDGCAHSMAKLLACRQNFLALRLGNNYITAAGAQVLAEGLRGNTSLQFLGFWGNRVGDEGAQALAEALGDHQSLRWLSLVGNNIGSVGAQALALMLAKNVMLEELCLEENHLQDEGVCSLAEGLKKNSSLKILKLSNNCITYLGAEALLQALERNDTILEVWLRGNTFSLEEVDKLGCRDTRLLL
# Chain of Voltage-dependent T-type calcium channel subunit alpha-1H (O95180 whole entry): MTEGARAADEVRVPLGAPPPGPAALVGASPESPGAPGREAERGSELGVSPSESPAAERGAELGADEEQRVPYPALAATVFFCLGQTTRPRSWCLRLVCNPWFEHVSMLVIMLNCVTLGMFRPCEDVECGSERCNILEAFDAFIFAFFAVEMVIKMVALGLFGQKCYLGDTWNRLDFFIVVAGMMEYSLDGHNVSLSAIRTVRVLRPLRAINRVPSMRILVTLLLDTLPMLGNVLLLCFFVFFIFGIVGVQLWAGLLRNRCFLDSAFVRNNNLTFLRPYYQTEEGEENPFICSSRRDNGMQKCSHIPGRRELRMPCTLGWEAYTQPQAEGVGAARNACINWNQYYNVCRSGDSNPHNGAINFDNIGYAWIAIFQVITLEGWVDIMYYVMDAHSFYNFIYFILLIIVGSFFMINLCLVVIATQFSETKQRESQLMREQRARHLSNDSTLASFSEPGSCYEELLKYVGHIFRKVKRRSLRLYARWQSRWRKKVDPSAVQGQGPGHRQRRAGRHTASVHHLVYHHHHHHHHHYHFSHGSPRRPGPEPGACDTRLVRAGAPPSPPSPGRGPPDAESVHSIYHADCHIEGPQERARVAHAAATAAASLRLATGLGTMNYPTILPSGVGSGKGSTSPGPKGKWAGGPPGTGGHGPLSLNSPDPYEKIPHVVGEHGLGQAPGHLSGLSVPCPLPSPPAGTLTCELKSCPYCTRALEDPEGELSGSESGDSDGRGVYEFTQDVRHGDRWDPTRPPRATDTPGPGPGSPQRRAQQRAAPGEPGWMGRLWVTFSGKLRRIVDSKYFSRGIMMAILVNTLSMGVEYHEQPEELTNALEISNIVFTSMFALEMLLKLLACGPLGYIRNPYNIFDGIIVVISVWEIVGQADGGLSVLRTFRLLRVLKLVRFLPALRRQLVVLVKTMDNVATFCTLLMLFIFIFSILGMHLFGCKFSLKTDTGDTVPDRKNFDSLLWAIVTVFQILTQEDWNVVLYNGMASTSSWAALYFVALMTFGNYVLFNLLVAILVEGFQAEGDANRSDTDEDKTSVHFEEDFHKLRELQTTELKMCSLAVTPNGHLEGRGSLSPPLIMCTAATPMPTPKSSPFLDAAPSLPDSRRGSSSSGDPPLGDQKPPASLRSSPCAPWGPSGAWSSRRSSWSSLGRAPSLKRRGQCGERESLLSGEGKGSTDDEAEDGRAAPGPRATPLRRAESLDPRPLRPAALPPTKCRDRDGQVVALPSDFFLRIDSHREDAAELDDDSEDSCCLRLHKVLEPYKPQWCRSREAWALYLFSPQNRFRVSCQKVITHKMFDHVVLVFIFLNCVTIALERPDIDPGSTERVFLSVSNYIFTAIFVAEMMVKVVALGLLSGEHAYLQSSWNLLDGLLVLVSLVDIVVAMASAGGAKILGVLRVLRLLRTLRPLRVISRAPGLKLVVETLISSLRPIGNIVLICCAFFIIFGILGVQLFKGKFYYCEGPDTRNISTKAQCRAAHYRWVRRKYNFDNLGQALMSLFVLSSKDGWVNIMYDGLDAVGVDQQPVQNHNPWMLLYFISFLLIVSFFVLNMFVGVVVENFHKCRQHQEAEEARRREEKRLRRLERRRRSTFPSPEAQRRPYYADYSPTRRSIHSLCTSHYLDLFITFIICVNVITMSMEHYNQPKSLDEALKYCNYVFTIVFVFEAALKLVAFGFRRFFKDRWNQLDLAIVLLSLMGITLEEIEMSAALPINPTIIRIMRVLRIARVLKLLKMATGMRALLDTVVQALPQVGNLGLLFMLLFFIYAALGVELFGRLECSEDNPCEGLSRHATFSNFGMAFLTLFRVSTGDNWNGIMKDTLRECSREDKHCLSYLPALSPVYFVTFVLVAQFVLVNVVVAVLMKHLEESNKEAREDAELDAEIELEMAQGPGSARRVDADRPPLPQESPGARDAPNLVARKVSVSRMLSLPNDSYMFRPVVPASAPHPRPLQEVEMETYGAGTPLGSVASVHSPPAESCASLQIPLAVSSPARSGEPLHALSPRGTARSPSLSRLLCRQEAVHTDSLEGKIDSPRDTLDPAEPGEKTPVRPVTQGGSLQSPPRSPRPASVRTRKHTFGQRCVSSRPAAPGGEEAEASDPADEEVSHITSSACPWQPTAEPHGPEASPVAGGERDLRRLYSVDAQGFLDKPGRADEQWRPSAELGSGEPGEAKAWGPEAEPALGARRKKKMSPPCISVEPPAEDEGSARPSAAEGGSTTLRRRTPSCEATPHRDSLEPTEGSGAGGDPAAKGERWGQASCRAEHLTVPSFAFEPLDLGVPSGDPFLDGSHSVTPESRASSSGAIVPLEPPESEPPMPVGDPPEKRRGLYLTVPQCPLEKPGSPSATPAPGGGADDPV
# Chain of Protein-tyrosine kinase 2-beta (Q14289 whole entry): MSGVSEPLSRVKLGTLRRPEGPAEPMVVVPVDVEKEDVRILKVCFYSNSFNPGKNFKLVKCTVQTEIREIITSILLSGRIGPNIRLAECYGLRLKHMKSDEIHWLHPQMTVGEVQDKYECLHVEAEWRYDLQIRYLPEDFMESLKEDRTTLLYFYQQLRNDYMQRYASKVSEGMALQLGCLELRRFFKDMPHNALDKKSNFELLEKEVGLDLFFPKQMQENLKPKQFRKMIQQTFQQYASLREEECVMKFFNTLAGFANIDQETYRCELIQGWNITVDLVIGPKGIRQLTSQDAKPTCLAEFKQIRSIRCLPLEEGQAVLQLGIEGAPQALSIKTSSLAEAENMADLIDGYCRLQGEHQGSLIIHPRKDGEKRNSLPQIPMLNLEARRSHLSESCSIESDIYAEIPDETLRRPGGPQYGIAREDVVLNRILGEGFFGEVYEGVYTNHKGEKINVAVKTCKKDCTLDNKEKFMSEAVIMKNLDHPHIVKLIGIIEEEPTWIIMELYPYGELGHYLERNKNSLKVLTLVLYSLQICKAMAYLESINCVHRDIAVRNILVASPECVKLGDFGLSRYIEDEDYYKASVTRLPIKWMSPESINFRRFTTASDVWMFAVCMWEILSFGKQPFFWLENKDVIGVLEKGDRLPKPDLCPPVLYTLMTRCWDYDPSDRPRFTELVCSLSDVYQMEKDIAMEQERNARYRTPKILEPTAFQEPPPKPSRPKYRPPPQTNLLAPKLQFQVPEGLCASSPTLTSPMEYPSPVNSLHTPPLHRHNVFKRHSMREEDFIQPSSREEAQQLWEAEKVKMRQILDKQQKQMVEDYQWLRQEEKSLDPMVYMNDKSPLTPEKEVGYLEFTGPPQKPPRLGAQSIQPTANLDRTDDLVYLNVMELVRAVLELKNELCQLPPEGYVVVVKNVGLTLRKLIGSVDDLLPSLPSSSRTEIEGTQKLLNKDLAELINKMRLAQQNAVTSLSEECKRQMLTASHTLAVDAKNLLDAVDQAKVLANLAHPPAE
# Chain of Cytochrome P450 2C19 (P33261 whole entry): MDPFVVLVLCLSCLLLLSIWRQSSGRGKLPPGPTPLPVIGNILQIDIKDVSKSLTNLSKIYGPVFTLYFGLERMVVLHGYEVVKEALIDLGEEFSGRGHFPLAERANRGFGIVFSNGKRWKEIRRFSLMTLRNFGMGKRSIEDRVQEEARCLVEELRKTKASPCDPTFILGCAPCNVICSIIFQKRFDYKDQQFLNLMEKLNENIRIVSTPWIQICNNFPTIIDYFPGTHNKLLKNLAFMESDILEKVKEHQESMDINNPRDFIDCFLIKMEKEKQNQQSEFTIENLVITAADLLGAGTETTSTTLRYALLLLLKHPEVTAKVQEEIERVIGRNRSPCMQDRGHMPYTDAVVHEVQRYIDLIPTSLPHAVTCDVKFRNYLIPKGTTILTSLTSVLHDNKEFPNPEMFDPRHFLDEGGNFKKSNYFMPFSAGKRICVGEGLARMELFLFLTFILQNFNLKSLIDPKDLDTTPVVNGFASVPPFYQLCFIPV
smiles,measurement,setting,value
Cc1csc2ncnc(NC3CCN(Cc4ccccc4)CC3)c12,IC50,HEK293 [1],2.36 µM (active)
same,EC50,[2],7.78 µM (active)
same,IC50,[3],> 80 µM (inactive)
same,EC50,HEK293 [4],1.92 µM (active)
same,IC50,HEK293 [5],> 20 µM (inactive)
same,IC50,HEK293 [6],1.61 µM (active)
same,IC50,HEK293 [7],> 20 µM (inactive)
COc1ccc(O)c(-c2[nH]ncc2C(=O)c2ccccc2)c1,IC50,HEK293 [1],14 µM (inactive)
same,EC50,[2],14.3 µM (active)
same,EC50,HEK293 [4],15 µM (active)
same,IC50,HEK293 [5],> 20 µM (inactive)
same,IC50,HEK293 [6],9.31 µM (active)
same,IC50,HEK293 [7],> 20 µM (inactive)
C[C@]12CC[C@@H]3c4ccc(O)cc4CC[C@H]3[C@@H]1CC[C@@H]2OC(=O)CCC1CCCC1 [ESTRADIOL CYPIONATE],CC50,[8],30.6 µM (active)
same,IC50,[9],> 10 µM (inactive)
same,IC50,[10],> 10 µM (inactive)
CC(C)C(=O)Nc1ccc(NC(=O)c2ccc3c(c2)OCO3)cc1,IC50,[11],> 80 µM (inactive)
CC1SC(NC(=O)c2ccncc2)=NC1=O (stereo unspecified),EC50,cells [12],> 350 µM (not active)
same,EC50,cells [13],> 350 µM (not active)
NCCc1ccc(O)cc1 [TYRAMINE],AC50,Cytochrome P450 2C19,inconclusive
same,IC50,cells [14],> 29.9 µM (inactive)
same,EC50,cells [15],> 29.9 µM (inactive)
same,IC50,[16],0.882 µM (active)
same,EC50,[17],0.178 µM (active)
CCc1ccc2nc(Nc3nc(O)cc(COC)n3)nc(C)c2c1,IC50,[11],> 80 µM (inactive)
Cc1cccc(C)c1NC(=O)C(c1ccc(Cl)cc1Cl)N1CCCCC1 (stereo unspecified),EC50,[18],2.39 µM (active)
COc1ccc(N(C)C(=O)c2ccc3nc(-c4ccccc4)c(-c4ccccc4)nc3c2)cc1,CC50,[19],12.8 µM (active)
same,EC50,[18],3.17 µM (active)
CCn1c(=O)cc(SCC(=O)N2CCC(C)CC2)c2ccccc21,EC50,[20],> 79.4 µM (not active)
same,EC50,[21],> 79.4 µM (inactive)
same,EC50,[22],> 79.4 µM (not active)
same,IC50,[11],> 80 µM (inactive)
Cc1cc(C)cc(OCC(=O)Nc2ccc(N3CCCC3)cc2)c1,IC50,Estrogen receptor beta,1.56 µM (active)
same,IC50,[23],7.74 µM (active)
same,IC50,Coagulation factor XII,> 50 µM (inactive)
COc1ccc(CCNc2oc(COc3ccc(Br)cc3)nc2C#N)cc1OC,IC50,HEK293 [1],5.07 µM (active)
same,EC50,[2],12.8 µM (active)
same,EC50,HEK293 [4],10.5 µM (active)
same,IC50,HEK293 [5],8.84 µM (active)
same,IC50,HEK293 [6],5.86 µM (active)
same,IC50,HEK293 [7],> 20 µM (inactive)
